Data taken from patent publication US11298362B2, “Combination therapy with Notch and CDK4/6 inhibitors for the treatment of cancer” (Eli Lilly and Company, priority 2016, dated 2022).

Columns and labels:
[1] = system: NCI-H2122 xenograft; assay: Human NCI-H2122 xenograft tumor growth in athymic nude mice; type: in vivo
Protocol: (§1) NCI-H2122 is a human adenocarcinoma non-small cell lung cancer cell line (ATCC® as CRL-5985). The cells are grown in culture media at 37° C. in 5% CO2 with humidity in the atmosphere. Cell culture media for NCI-H2122 is RPMI-1640 with 2 mM L-glutamine, 10 mM 2-[4-(2-hydroxyethyl)piperazin-1-yl]ethanesulfonic acid (HEPES), 1 mM sodium pyruvate, 4500 mg/L glucose, 1500 mg/L sodium bicarbonate, and 10% fetal bovine serum (FBS).
To evaluate in vivo efficacy 5×10^6 NCI-H2122 cells in a 1:1 Matrigel® mix (0.2 mL volume) are implanted by subcutaneous injection in the hind leg of 6-8 weeks of age athymic nude female mice (Harlan Laboratories). Just before implantation animals are irradiated ([…]). Mice are fed ad libitum on normal chow. Treatment is initiated with oral administration (gavage) of Compound A in 1% sodium carboxymethylcellulose (Na-CMC) in 0.25% Tween®-80, or Compound B in 1% hydroxyethyl cellulose (HEC) in phosphate buffer pH 2.0 or their respective vehicle in 0.2 mL volume when tumor size reaches to 150±50 mm^3. Compound A is administered at 5 or 8 mg/kg on a Wednesday, Friday, and Monday schedule (TIW) for 2 weeks and Compound B is administered at 25 or 50 mg/kg daily for 14 days.
Tumor growth and body weight are monitored over time to evaluate efficacy and signs of toxicity. Bidimensional measurements of tumors are performed twice a week and tumor volumes are calculated based on the following formula: (Tumor Volume)=[(L)×(W2)×(Π/6)] where L is mid-axis length and W is mid-axis width. Tumor volume data are transformed to a log scale to equalize variance across time and treatment groups. The log volume data are analyzed with a two-way repeated measures analysis of variance by time and treatment using the MIXED™ procedures in SAS™ software (version 8.2). The correlation model for the repeated measures is spatial power. Test Groups are: • 1: 1% HEC in 25 mM Phosphate Buffer, pH 2, QD×14, PO/1% CMC/0.25% Tween 80/0.05% Antifoam, /W-F-M×2, PO • 3: Compound B, 50 mg/kg, QD×14, PO • 4: Compound A, 5 mg/kg, W-F-M×2, PO • 5: Compound A, 8 mg/kg, W-F-M×2, PO • 7: Compound B, 50 mg/kg, QD×14, PO/Compound A, 5 mg/kg, W-F-M×2, PO • 8: Compound B, 50 mg/kg, QD×14, PO/Compound A, 8 mg/kg, W-F-M×2, PO Group 7 and a Group 9 were combined and labelled group 7, because they received the same treatment regimen contrary to testing procedures. […] Group 2 is not shown as it was Compound B monotreatment at the same treatment regimen as Compound B in Group 6 combination treatment.
Using the repeated measures analysis previously described, a contrast statement is used to test for an interaction effect on study day 27, using the two specific treatments that were combined (Group 7).

[2] = system: pRB (phospho-ser780-Rb), total RB, Topo IIa and pHH3 in H2122 cells; assay: Cell cycle biomarker expression by immunoblotting in H2122 cells; type: cell-based, human
Protocol: Time Course Study: NCI-H441 and NCI-H2122 NSCLC cell lines are treated for 4 or 24 hours with 1 μM of Compound A and harvested to evaluate effects on cell cycle biomarker expression which includes the cell cycle inhibitors p21 and p27 as well as markers for cell cycle progression including phospho-histone H3 (pHH3) (a marker for M-phase), Topo 2A (a marker for S-phase), phospho_ser780-RB (a marker for G1 and, as well as, for CDK4/6 inhibition) and cyclin Dl. […] […] Cells are harvested after 24 hours of treatment and evaluated for expression of various cell cycle biomarkers by immunoblotting. […] RB is the direct kinase target of CDK4/6 so inhibition of pRB provides a direct measure of CDK4/6 inhibition. The inhibition of Topo IIA and pHH3 are indicative of the inhibition of cell cycle progression through S and M phases of the cell cycle, respectively. […] The same study is carried out in the H441 cell line. […] RB is the direct kinase target of CDK4/6 so inhibition of pRB provides a direct measure of CDK4/6 inhibition. The inhibition of Topo IIA and pHH3 are indicative of the inhibition of cell cycle progression through S and M phases of the cell cycle, respectively.

[3] = system: NCI-H441; assay: Cell growth inhibition by CellTiter-Glo assay, NCI-H441; type: cell-based; details: Homo sapiens, Compound B alone, 48 hours
Protocol: (§2) The non-small cell lung cancer (NSCLC) lines NCI-H441 (ATCC® as HTB-174) and NCI-H2122 (ATCC® as CRL-5985) are grown in RPMI-1640 medium supplemented with 2 mM L-glutamine, 10 mM HEPS, 1 mM sodium pyruvate, 4500 mg/L glucose, 1500 mg/L sodium bicarbonate, and 10% fetal bovine serum (FBS) at 37° C. in 5% CO2 with humidity in the atmosphere. The cells are subcultured according to ATCC procedures and treated with increasing concentrations of abemaciclib mesylate (Compound B) either in the presence or absence of 1 μM of Compound A. The growth of the cells is quantified 48 hours later by a CellTiter-Glo assay (Promega). Growth inhibition at each concentration is calculated and IC50 values are determined from the 4-parameter concentration-response curves.

[4] = system: NCI-H2122; assay: Cell growth inhibition by CellTiter-Glo assay, NCI-H2122; type: cell-based; details: Homo sapiens, Compound B alone, 48 hours
Protocol: as §2, §1

[5] = Compound B 0.05-0.8 μM with or without 1 μM Compound A added 1 day before Compound B, 24 hours after addition
[6] = Compound B 0.05-0.8 μM with or without 1 μM Compound A added simultaneously, 24 hours

With C[C@H](NC(=O)CCC(F)(F)F)C(=O)N[C@@H]1C(=O)N(CCO)c2ncccc2-c2ccccc21 [Compound A, 4,4,4-trifluoro-N-[(1S)-2-[[(7S)-5-(2-hydroxyethyl)-6-oxo-7H-pyrido[2,3-d][3]benzazepin-7-yl]amino]-1-methyl-2-oxo-ethyl]butanamide] the “Geometric Mean tumor volume” value ([1]; Group 04: Compound A 5 mg/kg W-F-M×2 PO, study day 6) was 110.18 mm^3, the “Geometric Mean tumor volume” value ([1]; Group 04: Compound A 5 mg/kg W-F-M×2 PO, study day 9) was 129.04 mm^3 and the “Geometric Mean tumor volume” value ([1]; Group 04: Compound A 5 mg/kg W-F-M×2 PO, study day 13) was 189.14 mm^3. For the same compound, the “Geometric Mean tumor volume” value ([1]; Group 04: Compound A 5 mg/kg W-F-M×2 PO, study day 16) was 289.03 mm^3, the “Geometric Mean tumor volume” value ([1]; Group 04: Compound A 5 mg/kg W-F-M×2 PO, study day 20) was 447.05 mm^3 and the “Geometric Mean tumor volume” value ([1]; Group 04: Compound A 5 mg/kg W-F-M×2 PO, study day 23) was 585.69 mm^3. The “Geometric Mean tumor volume” value ([1]; Group 04: Compound A 5 mg/kg W-F-M×2 PO, study day 27) was 761.24 mm^3, the “Geometric Mean tumor volume” value ([1]; Group 05: Compound A 8 mg/kg W-F-M×2 PO, study day 6) was 127.60 mm^3 and the “Geometric Mean tumor volume” value ([1]; Group 05: Compound A 8 mg/kg W-F-M×2 PO, study day 9) was 165.23 mm^3. For the same compound, the “Geometric Mean tumor volume” value ([1]; Group 05: Compound A 8 mg/kg W-F-M×2 PO, study day 13) was 199.00 mm^3, the “Geometric Mean tumor volume” value ([1]; Group 05: Compound A 8 mg/kg W-F-M×2 PO, study day 16) was 301.93 mm^3 and the “Geometric Mean tumor volume” value ([1]; Group 05: Compound A 8 mg/kg W-F-M×2 PO, study day 20) was 492.37 mm^3. For the same compound, the “Geometric Mean tumor volume” value ([1]; Group 05: Compound A 8 mg/kg W-F-M×2 PO, study day 23) was 481.31 mm^3, the “Geometric Mean tumor volume” value ([1]; Group 05: Compound A 8 mg/kg W-F-M×2 PO, study day 27) was 570.39 mm^3 and the “cell cycle biomarker expression, time course study” value ([2]; 1 μM Compound A, 24 hours of treatment) was “Marginal reductions of pHH3, Topo2A, pRB and total RB”. For the same compound, the “cell cycle biomarker expression, concentration-response study” value [2, 5] was “no effect on the expression of these biomarkers” and the “cell cycle biomarker expression, concentration-response study” value [2, 6] was “no effect on the expression of these biomarkers”.

For CCN1CCN(Cc2ccc(Nc3ncc(F)c(-c4cc(F)c5nc(C)n(C(C)C)c5c4)n3)nc2)CC1 [Compound B, N-[5-(4-ethyl-piperazin-1-ylmethyl)-pyridin-2-yl]-[5-fluoro-4-(7-fluoro-3-isopropyl-2-methyl-3H-benzoimidazol-5-yl)-pyrimidin-2-yl]-amine, reference compound], the “Geometric Mean tumor volume” value ([1]; Group 03: Compound B 50 mg/kg QD×14 PO, study day 6) was 136.94 mm^3, the “Geometric Mean tumor volume” value ([1]; Group 03: Compound B 50 mg/kg QD×14 PO, study day 9) was 188.32 mm^3 and the “Geometric Mean tumor volume” value ([1]; Group 03: Compound B 50 mg/kg QD×14 PO, study day 13) was 191.75 mm^3. The “Geometric Mean tumor volume” value ([1]; Group 03: Compound B 50 mg/kg QD×14 PO, study day 16) was 321.32 mm^3, the “Geometric Mean tumor volume” value ([1]; Group 03: Compound B 50 mg/kg QD×14 PO, study day 20) was 376.59 mm^3 and the “Geometric Mean tumor volume” value ([1]; Group 03: Compound B 50 mg/kg QD×14 PO, study day 23) was 489.72 mm^3. The “Geometric Mean tumor volume” value ([1]; Group 03: Compound B 50 mg/kg QD×14 PO, study day 27) was 491.92 mm^3, the “cell cycle biomarker expression, concentration-response study” value [2, 5] was “concentration-dependent inhibition of pRB (phospho-ser780-Rb), total RB, Topo IIa and pHH3” and the “cell cycle biomarker expression, concentration-response study” value [2, 6] was “concentration-dependent inhibition of pRB (phospho-ser780-Rb), total RB, Topo IIa and pHH3”. It also gave an IC50 [3] of 970 nM and an IC50 [4] of 450 nM.
